Data on six molecules can be found in publication PMC2774819 (Chemistry & biology, 2008).

Read-outs that look alike come from different tables or passages of the source.

Experiment [1] has as its target T1, MycG (Micromonospora griseorubida, UniProt Q59523).
T1 sequence (Q59523 1-397): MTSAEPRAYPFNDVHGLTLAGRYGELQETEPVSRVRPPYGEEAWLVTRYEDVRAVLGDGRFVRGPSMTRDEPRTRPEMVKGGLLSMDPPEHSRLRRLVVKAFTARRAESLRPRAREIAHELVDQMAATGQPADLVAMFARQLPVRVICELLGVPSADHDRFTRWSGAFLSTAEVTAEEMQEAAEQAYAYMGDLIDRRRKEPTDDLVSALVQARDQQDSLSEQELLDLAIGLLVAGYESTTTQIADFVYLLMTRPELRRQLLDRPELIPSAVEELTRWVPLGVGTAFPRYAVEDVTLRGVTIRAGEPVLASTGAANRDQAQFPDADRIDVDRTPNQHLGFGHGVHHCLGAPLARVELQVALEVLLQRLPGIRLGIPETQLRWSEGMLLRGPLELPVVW
Put plainly: spectral substrate binding assay.

Experiment [2] addresses T1, MycG. In words: spectral substrate binding assay. This is another data set of the same source.
Experiment [3] has as its target T2, MycCI (Micromonospora griseorubida, UniProt Q83WF5).
T2 sequence (Q83WF5 1-388): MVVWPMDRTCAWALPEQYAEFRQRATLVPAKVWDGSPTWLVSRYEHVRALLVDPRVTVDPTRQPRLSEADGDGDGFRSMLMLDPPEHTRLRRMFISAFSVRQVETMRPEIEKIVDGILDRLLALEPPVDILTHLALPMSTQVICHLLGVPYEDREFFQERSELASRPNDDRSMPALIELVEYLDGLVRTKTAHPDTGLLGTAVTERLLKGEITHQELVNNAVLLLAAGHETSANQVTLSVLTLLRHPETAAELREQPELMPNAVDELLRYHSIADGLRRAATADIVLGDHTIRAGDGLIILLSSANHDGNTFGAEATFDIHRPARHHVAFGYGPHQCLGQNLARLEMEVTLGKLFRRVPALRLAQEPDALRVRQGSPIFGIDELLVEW
Put plainly: spectral substrate binding assay.

The target of experiment [4] is MycCI cytochrome P450, C-terminal 6 x His tagged (Micromonospora griseorubida) (UniProt Q83WF5). In words: spectral ferredoxin titration.
For experiment [5], the target named is T3, MycCI cytochrome P450, C-terminal 6 x His tagged (Micromonospora griseorubida, UniProt Q83WF5 1-388).
T3 sequence (looked up): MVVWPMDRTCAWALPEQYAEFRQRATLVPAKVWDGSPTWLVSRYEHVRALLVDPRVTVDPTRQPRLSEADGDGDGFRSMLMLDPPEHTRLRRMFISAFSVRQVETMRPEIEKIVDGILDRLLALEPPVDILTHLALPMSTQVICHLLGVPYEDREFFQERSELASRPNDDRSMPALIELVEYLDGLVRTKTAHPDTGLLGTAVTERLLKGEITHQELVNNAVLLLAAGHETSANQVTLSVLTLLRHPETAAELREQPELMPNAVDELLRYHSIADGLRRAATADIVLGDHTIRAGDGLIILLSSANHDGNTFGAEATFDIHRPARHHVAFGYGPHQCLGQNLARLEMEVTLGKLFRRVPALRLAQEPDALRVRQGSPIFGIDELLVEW
In words: spectral ferredoxin titration.

Molecule `CC[C@H]1OC(=O)/C=C/[C@H](C)[C@@H](O[C@@H]2O[C@H](C)C[C@H](N(C)C)[C@H]2O)[C@@H](C)C[C@@H](C)C(=O)/C=C/[C@H]2O[C@@H]2[C@]1(O)CO[C@@H]1O[C@H](C)[C@@H](O)[C@@H](OC)[C@H]1OC` [M-II, mycinamicin II] returned a Kd in experiment [1] of 71.5 ± 8.4 µM.

In experiment [1], `CC[C@H]1OC(=O)/C=C/[C@H](C)[C@@H](O[C@@H]2O[C@H](C)C[C@H](N(C)C)[C@H]2O)[C@@H](C)C[C@@H](C)C(=O)/C=C/C=C/[C@@H]1CO[C@@H]1O[C@H](C)[C@@H](O)[C@@H](OC)[C@H]1OC` [M-IV, mycinamicin IV] displayed an equilibrium dissociation constant (Kd) of 0.7 ± 0.1 µM. This Kd is about 100-fold lower than that of the molecule before.

The molecule `CC[C@H]1OC(=O)/C=C/[C@H](C)[C@@H](O[C@@H]2O[C@H](C)C[C@H](N(C)C)[C@H]2O)[C@@H](C)C[C@@H](C)C(=O)/C=C/C=C/[C@]1(O)CO[C@@H]1O[C@H](C)[C@@H](O)[C@@H](OC)[C@H]1OC` [M-V, mycinamicin V] gave a Kd in experiment [2] of 10.4 ± 0.2 µM.

The molecule `CC[C@H]1OC(=O)/C=C/[C@@H](C)[C@H](O[C@H]2O[C@@H](C)C[C@@H](N(C)C)[C@@H]2O)[C@H](C)C[C@@H](C)C(=O)/C=C\C=C\[C@H]1C` [M-VIII, mycinamicin VIII] displayed a Kd in experiment [3] of 28.1 ± 3.2 µM.

With “spinach ferredoxin (from UniProt P00221 51-147) (natural protein)”, the equilibrium dissociation constant (Kd) in experiment [4] was determined as 149 µM.

B1: N-terminal 6 x His-tagged ferredoxin MycCII (natural protein, Micromonospora griseorubida, UniProt Q83WF4 1-74, looked up)
chain: MRIVLDAERCVGAGQCEATAPELFTQGDDGLGLVRDRPVTPELLGPAREAVDRCPVRAIRIESSVRTGWARGAG
As to B1, in experiment [5], the affinity, expressed as Kd, was 7 ± 0.1 µM.
